What all share (experiment): inhibition of tumour cell growth, NCI panel, 48 h
Assay [1] concerns KM12 colon.
The test system of assay [2] is SF-268 CNS.
Assay [3] has as its system UACC-257 melanoma.
In assay [4] the test system is CCRF-CEM leukemia.
Assay [5] concerns A498 renal.
Assay [6] concerns NCI/ADR-RES ovarian.
Assay [7] deals with CAKI-1 renal.
Assay [8] deals with NCI-H23 lung.
Assay [9] has as its system MOLT-4 leukemia.
The subject of assay [10] is DU-145 prostate.

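Interpolation was linear, between the two tested concentrations surrounding the appropriate level; five concentrations were tested over 48 hours in 96-well plates. Abbreviation: GI50, concentration required for 50% inhibition of growth. At the TGI there is no net growth.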

For the compound `CCCCCCc1cn([C@H]2C[C@H](O)[C@@H](CO)O2)c(=O)[nH]c1=O`, the TGI in [1], in assay [2], in [3], in [4], in assay [5] and in assay [6] was more than 100 µM throughout. The TGI in [7] and in assay [8] was more than 100 µM each time.
Turning to `O=S(=O)(/N=C1/SC(=Nc2ccccc2)N(c2ccccc2)/C1=N/S(=O)(=O)c1ccccc1)c1ccccc1`, the TGI came to 62.2 µM in assay [9]; 71 µM in assay [1]; 43.4 µM in assay [3]; 55 µM in assay [4]; 37.6 µM in assay [5]; 34.5 µM in assay [8].
Regarding `C=C1CC(OC)(C(O)C(=O)N[C@H]2OCO[C@H]3C2O[C@H](C[C@H](O)COC)C(C)(C)C3OC)O[C@H](C)[C@@H]1C` (stereo not given in full), the TGI in assay [9], in assay [2], in assay [3], in [4], in assay [5] and in assay [6] was more than 0.00772 µM throughout. This compound also returned a TGI in assay [8] of more than 0.00772 µM.
On to `COc1cc(-c2[o+]c3cc(O)cc(OC4OC(CO)C(O)C(O)C4O)c3cc2OC2OC(CO)C(O)C(O)C2O)cc(OC)c1O` (stereo not given), for which the TGI in assay [10], in assay [9], in [1], in [2], in assay [3] and in assay [4] was more than 100 µM in each case. For the same compound, the TGI in assay [5], in assay [7] and in assay [8] was more than 100 µM throughout.
With `c1cc2ccc1CNCCN1CCNCc3ccc(cc3)Oc3ccc(cc3)CNCCN(CCNCc3ccc(cc3)O2)CCNCc2ccc(cc2)Oc2ccc(cc2)CNCC1`, the GI50 in [10] was 1.46 µM; in assay [1] it was 1.77 µM; in [3], 1.8 µM; in assay [6], 16.7 µM; in assay [7], 3.07 µM. Besides, the TGI in [10] came to 2.83 µM; in assay [1] it was 3.22 µM; in assay [3], 3.4 µM; in assay [6], 63.5 µM; in assay [7], 12.9 µM.
On to `C=C1C(=O)O[C@H]2C/C(C=O)=C\[C@H]3O[C@H]3/C(COC(=O)C(C)C)=C/CC12` (stereo not given in full), for which the TGI in assay [10] stood at 25.2 µM; in assay [9], 10.6 µM; in assay [1] it was 22.7 µM; in [3], 28.4 µM; in assay [4], 6.63 µM; in assay [6], 33.8 µM. The TGI in assay [7] is 7.31 µM; in assay [8] it was 20.3 µM.
Turning to `O=c1c(-c2ccc(O)cc2)coc2cc(O)cc(O)c12`, the TGI in assay [10], in assay [9], in [1], in assay [2], in assay [6] and in assay [8] was more than 100 µM each time.
As for `O=C(O)CCCc1ccc2c(c1)CC1(C2)Cc2ccc(CCCC(=O)O)cc2C1`, the TGI in assay [9], in [1], in assay [3], in assay [4], in assay [5] and in assay [6] was more than 100 µM throughout. This compound also displayed a TGI in assay [8] of more than 100 µM.
Consider `CC(=O)[C@H]1CCC2[C@@H]3CC=C4C(O)C(OS(=O)(=O)O)CC[C@]4(C)C3CC[C@@]21C` (stereo not given in full), for which the TGI in assay [9], in assay [1], in assay [2], in assay [3], in assay [4] and in assay [5] was more than 100 µM in each case. The TGI in assay [6], in assay [7] and in [8] was more than 100 µM in each case.
On to `NC1CCCCC1N.O=S(=O)([O-])CCCN1CCN(CCO)CC1.O=S(=O)([O-])CCCN1CCN(CCO)CC1.[Pt+4]`, for which the GI50 in assay [9] is 0.587 µM; in assay [1], 13.2 µM; in [2], 3.72 µM; in [3], 5.77 µM; in assay [4], 2.21 µM; in [5] it was 6.05 µM. The GI50 in [6] is 1.47 µM; in assay [7], 0.856 µM; in [8] it was 7.36 µM. Besides, the TGI is 20.6 µM in assay [9]; more than 100 µM in assay [1]; more than 78 µM in assay [2]; 24 µM in [3]; more than 50.5 µM in [4]; more than 100 µM in [5]. For the same compound, the results for the TGI in assay [6], in assay [7] and in [8] were more than 37 µM, 9.16 µM and more than 100 µM, respectively.
Take `CC(=O)Nc1ccc(/C=C(\NC(=O)c2ccccc2)C(=O)NNS(=O)(=O)c2ccc(C)cc2)cc1`: the TGI in assay [9], in assay [1], in [2], in [3], in assay [4] and in assay [7] was more than 100 µM throughout. The same compound gave a TGI in [8] of more than 100 µM.

Source of the values: PubChem BioAssay (NCI).
